Reference: PMC8296573, “Synthesis and Biological Evaluation of Fingolimod Derivatives as Antibacterial Agents” (ACS Omega, 2021)
In brackets after ≈: the same amount, converted by molar mass. Like-named read-outs stand apart in the source and are kept apart here.

Tests used:
A. baumannii NCTC 13423 = test: Antibacterial activity, pre-exposure; assay type: cell-based, Acinetobacter baumannii; settings: for Average inhibition %, biofilms viability / Average inhibition %, planktonic cells viability / inhibition at 10 µM / inhibition at 15 µM / inhibition at 25 µM / inhibition at 50 µM: A. baumannii NCTC 13423, pre-exposure, ± SD; for inhibition at 10 µM / inhibition at 15 µM / inhibition at 25 µM / inhibition at 50 µM / MIC: Acinetobacter baumannii, NCTC13423
In short: (§1)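 Pre-exposure format: compounds added with bacteria, 18 h aerobic at 37 °C with shaking. Planktonic growth read by OD and resazurin (20 μM final) fluorescence; biofilms by resazurin viability then crystal violet biomass (A595). Resazurin incubation time/temperature varied by species.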

S. aureus ATCC 25923 [1] = test: Antibacterial activity, post-exposure on preformed 18-h-old biofilms; assay type: cell-based, Staphylococcus aureus; settings: ± SD; for inhibition at 25 µM / inhibition at 50 µM / inhibition at 100 µM / inhibition at 200 µM: Staphylococcus aureus; for inhibition at 25 µM: ATCC25923, 25 µM; for inhibition at 50 µM: ATCC25923, 50 µM; for inhibition at 100 µM: ATCC25923, 100 µM; for inhibition at 200 µM: ATCC25923, 200 µM
In short: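 Biofilms grown 18 h without compound, medium then replaced and compound added for a further 24 h. Planktonic OD and resazurin (20 μM final) fluorescence (ex 560/em 590 nm) read; washed biofilms stained with 20 μM resazurin 30 min at 37 °C, then ethanol-fixed and crystal violet-stained, absorbance 595 nm.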

S. aureus ATCC 25923 [2] = test: Antibacterial activity, pre-exposure (planktonic cells and biofilm formation); assay type: cell-based, Staphylococcus aureus; settings: for MIC / inhibition at 5 µM / inhibition at 10 µM / inhibition at 15 µM / inhibition at 25 µM: Staphylococcus aureus, ATCC25923; for inhibition at 5 µM / inhibition at 10 µM / inhibition at 15 µM / inhibition at 25 µM / Average inhibition %, biofilms viability / Average inhibition %, planktonic cells viability: ± SD
In short: as §1

P. aeruginosa ATCC 9027 = test: Antibacterial activity, pre-exposure; assay type: cell-based, Pseudomonas aeruginosa; settings: for Average inhibition %, biofilms viability / Average inhibition %, planktonic cells viability / inhibition at 50 µM / inhibition at 100 µM / inhibition at 150 µM / inhibition at 200 µM: P. aeruginosa ATCC 9027, pre-exposure, ± SD; for inhibition at 50 µM / inhibition at 100 µM / inhibition at 150 µM / inhibition at 200 µM: Pseudomonas aeruginosa, ATCC9027
In short: as §1

[3] = 50 µM, read-out: Average inhibition %, biofilms biomass
[4] = 50 µM, read-out: Average inhibition %, planktonic cells turbidity
[5] = read-out: Average inhibition %, biofilms biomass
[6] = read-out: Average inhibition %, planktonic cells turbidity

CCCCCCCCCCc1ccc(C(O)CC(N)(CO)CO)cc1 (stereo not shown) [Compound 55, 3-Amino-3-(hydroxymethyl)-1-(4-decylphenyl)butane-1,4-diol]
Average inhibition %, biofilms viability (A. baumannii NCTC 13423; 10 µM): 1.8 ± 3.2% | Average inhibition %, planktonic cells viability (A. baumannii NCTC 13423; 10 µM): 3.8 ± 3.3% | Average inhibition %, biofilms viability (A. baumannii NCTC 13423; 15 µM): 92.7 ± 9.4% | Average inhibition %, planktonic cells viability (A. baumannii NCTC 13423; 15 µM): 98.1 ± 2.3% | Average inhibition %, biofilms viability (A. baumannii NCTC 13423; 25 µM): 100.6 ± 0.9% | Average inhibition %, planktonic cells viability (A. baumannii NCTC 13423; 25 µM): 99.7 ± 0% | Average inhibition %, biofilms viability (A. baumannii NCTC 13423; 50 µM): 101 ± 1% | Average inhibition %, planktonic cells viability (A. baumannii NCTC 13423; 50 µM): 99.5 ± 0% | inhibition at 10 µM (A. baumannii NCTC 13423; 10 µM, read-out: Average inhibition %, biofilms biomass): 0.2 ± 0.4% | inhibition at 10 µM (A. baumannii NCTC 13423; 10 µM, read-out: Average inhibition %, planktonic cells turbidity): 0.8 ± 1.4% | inhibition at 15 µM (A. baumannii NCTC 13423; 15 µM, read-out: Average inhibition %, biofilms biomass): 74.2 ± 18.9% | inhibition at 15 µM (A. baumannii NCTC 13423; 15 µM, read-out: Average inhibition %, planktonic cells turbidity): 97.2 ± 2.5% | inhibition at 25 µM (A. baumannii NCTC 13423; 25 µM, read-out: Average inhibition %, biofilms biomass): 88.5 ± 6.6% | inhibition at 25 µM (A. baumannii NCTC 13423; 25 µM, read-out: Average inhibition %, planktonic cells turbidity): 99.5% | inhibition at 50 µM (A. baumannii NCTC 13423; [3]): 87.4 ± 4.1% | inhibition at 50 µM (A. baumannii NCTC 13423; [4]): 99.1% | MIC (A. baumannii NCTC 13423; pre-exposure, Inactive = no activity up to 50 μM, > = some inhibition but no MIC reached, read-out: MIC A. baumannii NCTC 13423): 15 µM (≈ 5.27 µg/mL) | MIC (A. baumannii NCTC 13423; supplementary molecular formula strings sheet, read-out: MIC (A. baumannii)): 15 µM (≈ 5.27 µg/mL) | Average inhibition %, biofilms viability (S. aureus ATCC 25923 [1]; 25 µM): 17.9 ± 13.2% | Average inhibition %, planktonic cells viability (S. aureus ATCC 25923 [1]; 25 µM): 0 ± 0% | Average inhibition %, biofilms viability (S. aureus ATCC 25923 [1]; 50 µM): 36.8 ± 8.3% | Average inhibition %, planktonic cells viability (S. aureus ATCC 25923 [1]; 50 µM): 0 ± 0% | Average inhibition %, biofilms viability (S. aureus ATCC 25923 [1]; 100 µM): 44.4 ± 9.7% | Average inhibition %, planktonic cells viability (S. aureus ATCC 25923 [1]; 100 µM): 70 ± 12.5% | Average inhibition %, biofilms viability (S. aureus ATCC 25923 [1]; 200 µM): 94 ± 8.6% | Average inhibition %, planktonic cells viability (S. aureus ATCC 25923 [1]; 200 µM): 100.4 ± 0% | inhibition at 25 µM (S. aureus ATCC 25923 [1]; [5]): 51.6 ± 18.4% | inhibition at 25 µM (S. aureus ATCC 25923 [1]; [6]): 15.7 ± 13.7% | inhibition at 50 µM (S. aureus ATCC 25923 [1]; [5]): 63.1 ± 9% | inhibition at 50 µM (S. aureus ATCC 25923 [1]; [6]): 9.8 ± 13.9% | inhibition at 100 µM (S. aureus ATCC 25923 [1]; [5]): 61.4 ± 3.4% | inhibition at 100 µM (S. aureus ATCC 25923 [1]; [6]): 67.6 ± 10.3% | inhibition at 200 µM (S. aureus ATCC 25923 [1]; [5]): 80.8 ± 4.2% | inhibition at 200 µM (S. aureus ATCC 25923 [1]; [6]): 84.2 ± 3.1% | MIC (S. aureus ATCC 25923 [2]; lowest concentration with no visible growth (>90% inhibition of turbidity and viability of planktonic cells), 18 h, read-out: MIC S. aureus ATCC 25923): 5 to 15 µM (≈ 1.76 to 5.27 µg/mL) | inhibition at 5 µM (S. aureus ATCC 25923 [2]; pre-exposure, 5 µM, read-out: Average inhibition %, biofilms biomass): 48.4 ± 41.1% | inhibition at 5 µM (S. aureus ATCC 25923 [2]; pre-exposure, 5 µM, read-out: Average inhibition %, planktonic cells turbidity): 38.2 ± 53.8% | inhibition at 10 µM (S. aureus ATCC 25923 [2]; pre-exposure, 10 µM, read-out: Average inhibition %, biofilms biomass): 69.6 ± 23.5% | inhibition at 10 µM (S. aureus ATCC 25923 [2]; pre-exposure, 10 µM, read-out: Average inhibition %, planktonic cells turbidity): 43.5 ± 48.8% | inhibition at 15 µM (S. aureus ATCC 25923 [2]; pre-exposure, 15 µM, read-out: Average inhibition %, biofilms biomass): 93.4 ± 1.1% | inhibition at 15 µM (S. aureus ATCC 25923 [2]; pre-exposure, 15 µM, read-out: Average inhibition %, planktonic cells turbidity): 99 ± 0.6% | inhibition at 25 µM (S. aureus ATCC 25923 [2]; pre-exposure, 25 µM, read-out: Average inhibition %, biofilms biomass): 94.2 ± 1.1% | inhibition at 25 µM (S. aureus ATCC 25923 [2]; pre-exposure, 25 µM, read-out: Average inhibition %, planktonic cells turbidity): 98.8 ± 0.6% | MIC (S. aureus ATCC 25923 [2]; pre-exposure, lowest value among replicates, read-out: MIC S. aureus ATCC 25923, for some replicates): 5 µM (≈ 1.76 µg/mL) | MIC (S. aureus ATCC 25923 [2]; read-out: MIC (S. aureus)): 5 to 15 µM (≈ 1.76 to 5.27 µg/mL) | Average inhibition %, biofilms viability (S. aureus ATCC 25923 [2]; pre-exposure, 5 µM): 50.6 ± 42% | Average inhibition %, planktonic cells viability (S. aureus ATCC 25923 [2]; pre-exposure, 5 µM): 33.2 ± 57.6% | Average inhibition %, biofilms viability (S. aureus ATCC 25923 [2]; pre-exposure, 10 µM): 66.7 ± 28.3% | Average inhibition %, planktonic cells viability (S. aureus ATCC 25923 [2]; pre-exposure, 10 µM): 43.1 ± 49.4% | Average inhibition %, biofilms viability (S. aureus ATCC 25923 [2]; pre-exposure, 15 µM): 99.2 ± 0.2% | Average inhibition %, planktonic cells viability (S. aureus ATCC 25923 [2]; pre-exposure, 15 µM): 99.8 ± 0.1% | Average inhibition %, biofilms viability (S. aureus ATCC 25923 [2]; pre-exposure, 25 µM): 99.6 ± 0.2% | Average inhibition %, planktonic cells viability (S. aureus ATCC 25923 [2]; pre-exposure, 25 µM): 99.8 ± 0.2% | Average inhibition %, biofilms viability (P. aeruginosa ATCC 9027; 50 µM): 13.6 ± 11.8% | Average inhibition %, planktonic cells viability (P. aeruginosa ATCC 9027; 50 µM): 31.2 ± 8.9% | Average inhibition %, biofilms viability (P. aeruginosa ATCC 9027; 100 µM): 9.4 ± 9.2% | Average inhibition %, planktonic cells viability (P. aeruginosa ATCC 9027; 100 µM): 30.3 ± 25.5% | Average inhibition %, biofilms viability (P. aeruginosa ATCC 9027; 150 µM): 3.3 ± 4.6% | Average inhibition %, planktonic cells viability (P. aeruginosa ATCC 9027; 150 µM): 40.3 ± 27.1% | Average inhibition %, biofilms viability (P. aeruginosa ATCC 9027; 200 µM): 5 ± 5.6% | Average inhibition %, planktonic cells viability (P. aeruginosa ATCC 9027; 200 µM): 27.1 ± 15.6% | inhibition at 50 µM (P. aeruginosa ATCC 9027; [3]): 6.4 ± 8.2% | inhibition at 50 µM (P. aeruginosa ATCC 9027; [4]): 45.1 ± 5.7% | inhibition at 100 µM (P. aeruginosa ATCC 9027; 100 µM, read-out: Average inhibition %, biofilms biomass): 10.8 ± 8.8% | inhibition at 100 µM (P. aeruginosa ATCC 9027; 100 µM, read-out: Average inhibition %, planktonic cells turbidity): 49.4 ± 8.3% | inhibition at 150 µM (P. aeruginosa ATCC 9027; 150 µM, read-out: Average inhibition %, biofilms biomass): 12 ± 10.4% | inhibition at 150 µM (P. aeruginosa ATCC 9027; 150 µM, read-out: Average inhibition %, planktonic cells turbidity): 54.3 ± 13.8% | inhibition at 200 µM (P. aeruginosa ATCC 9027; 200 µM, read-out: Average inhibition %, biofilms biomass): 3.1 ± 2.7% | inhibition at 200 µM (P. aeruginosa ATCC 9027; 200 µM, read-out: Average inhibition %, planktonic cells turbidity): 59.4 ± 7.3% | MIC P. aeruginosa ATCC 9027 (P. aeruginosa ATCC 9027; pre-exposure, Inactive = no activity up to 200 μM, > = some inhibition but no MIC reached): Inactive
